# In EP0906096B1, “USE OF HYDROXYPROLINES FOR THE MANUFACTURE OF A MEDICAMENT FOR INHIBITING LEUKOCYTE INVASION OF TISSUES” (Chephasaar Chem.-Pharm. Fabrik GmbH, priority 1996, dated 1997):
# What was measured:
# [1] = system: Granulozyten; test: Adhesion of granulocytes to an endothelial layer (method of Hahne et al. 1993); format: cell-based
# From the text: Gemäß M. Hahne et al. (1993), J. Cell. Biol. 121, 655-664 wurde die IC50-Konzentration von Hydroxyprolinderivaten, die zu einer 50 %igen Reduktion der Adhäsion von Granulozyten an einer Endothelschicht führte, bestimmt. Als besonders wirksam zeigte sich die an R2 acetylierte Verbindung.
# [2] = system: Granulozyten; test: Ex vivo adhesion of volunteers' granulocytes to endothelia after oral intake; format: in vivo, Menschen
# From the text: Gesunde Probanden erhielten eine einmalige Dosis von N-Acetylhydroxyprolin zum Zeitpunkt 0. Unmittelbar vorher und zu den genannten Zeitpunkten wurde Blut abgenommen und die Leukozyten mit Hilfe der Lymphoprep-Separation (Histoprep, Biologische Arbeitsgemeinschaft GmbH, Lich, Germany) präpariert. Die Adhäsion wurde wie in M. Hahne et al. (1993), J . Cell Biol. 121, 655 - 664 beschrieben bestimmt. Die durch LPS-Stimulation erhöhte Adhäsion ist evident (⌀ im Vergieich zu LPS, Zeitpunkt ⌀).
# [3] = system: Lymphozyten und Monozyten; test: Ex vivo adhesion of volunteers' lymphocytes and monocytes after oral intake; format: in vivo, Menschen; details: 400 - 800 mg
# [4] = system: Blutplättchen; test: Ex vivo platelet function after oral intake; format: in vivo; details: volunteers, 400 - 800 mg
# [5] = system: Carrageenin-Pfotenödem, Adjuvansarthritis, Baumwollgranulom; test: Standard inflammation models (carrageenan paw oedema, adjuvant arthritis, cotton granuloma), histology; format: in vivo; details: short-term and long-term application; histological work-up
# [6] = system: eosinophiles Lungeninfiltrat; test: Acute allergic inflammation: protein-induced eosinophilic lung infiltrate in sensitised guinea pigs; format: in vivo, Meerschweinchen
# From the text: In Modellen der akuten allergischen Entzündung, wie z.
# [7] = system: ischämisch traumatisiertes Gefäßendothel; test: Post-ischaemia model (Nolte et al. 1995), leukocyte adherence in postcapillary venules; format: in vivo, Hamster; details: 50 mg/kg given 10 min before reperfusion; effect present after 0,5 and 2 hours; in all animals
# Procedure: In dem von Nolte et al., Int. J. Microcirc. 15 (suppl 1) (1995), 9 - 16 beschriebenen Postischämiemodell beim Hamster zeigte sich, dass N-Acetylhydroxyprolin (Oxazeprol) bei Dosierungen von 50 mg/kg kurz yor Reperfusion (10 min) gegeben, die Adhäsion der Leukozyten am ischämisch traumatisierten Gefäßendothel um ca. 50 % reduzierte. Dieser Effekt war nach 0,5 und 2 Stunden vorhanden (Abb. 3). Er trat in allen untersuchten Tieren auf. Oxazeprol verhielt sich damit ähnlich wie Buflomidil (ein PDE4-Hemmer), Iloprostol (ein PhI-Analog) und monoklonale Antikörper gegen Selektine, d.h. N-Acetylhydroxyprolin verhinderte spezifisch die im Gefolge einer Noxe (Ischämie) auftretende Leukozytenadhäsion und -invasion ins Gewebe.
# [8] = ex vivo, volunteers, single or repeated intake of 400 - 800 mg
structure (smiles),measurement,setting,value
"CC(=O)N1C[C@H](O)C[C@H]1C(=O)O [N-Acetylhydroxyprolin, N-Acetyl-L-hydroxyprolin]",noch meßbar bei,"[1]; concentration at which inhibition of granulocyte adhesion is still measurable, unit not given",10^-9
same,IC50,"[1]; concentration giving 50 % reduction of granulocyte adhesion to an endothelial layer, unit inferred",~100 nM
same,Adhäsion der Granulozyten an Endothelien,[2]; [8],reduzierte Adhäsion
same,Dauer des Effekts auf die Granulozytenadhäsion,[2]; [8],24 - 48 Stunden
same,durch LPS-Stimulation erhöhte Adhäsion,"[2]; healthy volunteers, single dose at time 0, after 24 hours (Abb. 2)",weitgehend durch N-Acetylhydroxyprolin gehemmt
same,Effekte auf Lymphozyten und Monozytenadhäsion,[3],verschwanden hingegen nach wenigen Stunden
same,Funktion der Blutplättchen,[4],nicht tangiert
same,Invasion der Granulozyten,[5],deutliche reduzierte Invasion
same,Invasion von monozytären Leukozyten,[5],kaum verändert
same,Einwanderung von Granulozyten,[6]; late phase,signifikant reduziert
same,Einwanderung der eosinophilen Granulozyten,"[6]; sensitised guinea pig, protein-induced",keinen meßbaren Effekt
same,Reduktion der Adhäsion der Leukozyten am ischämisch traumatisierten Gefäßendothel,[7],ca. 50%
